Results reported in patent US6762052B1, “DNA sequence encoding flavin-containing monooxygenase” (priority 1993, dated 2004).
Where a chain is given by its changes, count along the chain named.

Legend:
glu158-HFMO3-MBP = molecular target: T1, glu158-HFMO3-MBP (Homo sapiens, UniProt P31513); assay: Substrate oxygenation by glu158-HFMO3-MBP fusion protein, HPLC; settings: glu158-HFMO3-MBP, N-oxygenation
T1 sequence (P31513 2-532): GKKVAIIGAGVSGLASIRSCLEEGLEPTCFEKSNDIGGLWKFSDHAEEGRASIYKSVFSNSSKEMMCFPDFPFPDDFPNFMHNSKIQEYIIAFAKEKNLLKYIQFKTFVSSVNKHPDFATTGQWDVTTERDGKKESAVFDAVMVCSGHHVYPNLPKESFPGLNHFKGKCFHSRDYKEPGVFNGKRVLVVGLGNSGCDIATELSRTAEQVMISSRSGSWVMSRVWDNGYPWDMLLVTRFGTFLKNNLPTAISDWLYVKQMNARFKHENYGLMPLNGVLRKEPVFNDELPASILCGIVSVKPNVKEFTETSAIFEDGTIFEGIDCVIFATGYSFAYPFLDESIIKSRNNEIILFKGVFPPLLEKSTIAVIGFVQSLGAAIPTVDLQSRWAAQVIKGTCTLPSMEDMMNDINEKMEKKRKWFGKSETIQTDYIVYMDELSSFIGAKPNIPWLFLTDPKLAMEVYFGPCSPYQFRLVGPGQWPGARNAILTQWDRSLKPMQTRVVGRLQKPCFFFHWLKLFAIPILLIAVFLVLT
Description: (§1) For HFMO3-MBP assay, all HFMO3-MBP incubations were done as follows: Into a test tube was added DETAPAC (1.2 mM, final concentration for a 250 μl reaction) followed by the addition of 60 μl NADPH generating system (0.4 mM NADP, 0.4 mM glucose-6-phosphate, and 20 μl of a 50 units mI^−1 glucose-6-phosphate dehydrogenase). The tube was chilled on ice and buffer and enzyme were added as described below for individual experiments to give a volume of 240 μl. The incubation was initiated by the addition of 5-DTP (10 μl of 5 mM) and placed in a shaking water bath at 37° C. for 10 min (unless specified otherwise). The incubation was stopped by the addition of 1.0 ml of ice-cold CH2Cl2. Following the addition of sodium carbonate (approx. 20 mg), the culture tube was vortexed, centrifuged (2000×g, 10 min), and the organic layer was removed and transferred to a 1.5 ml microfuge tube. The organic solvent was evaporated under a stream of Ar(g) to dryness and the residue was taken up in MeOH (300 μl) for determination HPLC analysis.
(§2) Data was analyzed with a Hitachi D-2500 integrator.
(§3) MTS-oxygenation assays were carried out under the same buffer, temperature, time and volume conditions, as for the N-oxygenation assays. The reactions were initiated upon addition of 10 μl of a 5 mM solution of MTS. The reaction was quenched with the addition of 700 μl of 80% CH3CN:20% hexane then 20 mg NaCl(s) and vortexed vigorously for 10 sec. The quenched reactions were then centrifuged briefly to separate the phases. The organic layer, containing product and substrate, was removed and used directly for HPLC analysis.
(§4) All other instruments used were the same as above for the N-oxygenation reactions. Conditions for elution were 50% CH3CN/H2O (v:v) with a flow rate gradient as follows: 1.5 ml min^−1 from 0 to 4 min., 1.5-2.5 ml min^−1 from 4 to 5 min, 2.5 ml min^−1 from 5 to 15 min.
Trimethylamine is commonly ingested in foodstuffs or it is available in the diet of humans from choline and other sources. Trimethylamine (TMA) is exclusively eliminated in humans by metabolism to trimethylamine N-oxide (TMANO). […]

lys158-HFMO3-MBP = molecular target: T2, lys158-HFMO3-MBP (Homo sapiens, UniProt P31513, E158K); assay: Substrate oxygenation by lys158-HFMO3-MBP fusion protein, HPLC; settings: lys158-HFMO3-MBP, N-oxygenation
T2 sequence (P31513 2-532 E158K): T1 sequence (P31513 2-532) with E157K
Description: as §1, §2, §3, §4
Trimethylamine is commonly ingested in foodstuffs or it is available in the diet of humans from choline and other sources. Trimethylamine (TMA) is exclusively eliminated in humans by metabolism to trimethylamine N-oxide (TMANO). […] Thus, urinary TMANO formation provides a simple, reliable and direct assay of FMO3 activity in adult humans. Analysis of TMA to TMANO ratios provides a direct means of phenotyping adult humans for FMO3 activity. Phenotyping FMO3 activity in humans would provide a simple means of evaluating the relationship between the presence of FMO3 and various disease conditions. […]

SMILES: CN(C)CCCCCN1c2ccccc2Sc2ccc(C(F)(F)F)cc21 [Compound 5]
- Km (glu158-HFMO3-MBP): 108 µM
- Vmax (glu158-HFMO3-MBP; Lineweaver-Burke analysis): 15.8 nmole/min/nmol of flavin
- Km (lys158-HFMO3-MBP): 78 µM
- Vmax (lys158-HFMO3-MBP; Lineweaver-Burke analysis): 1.88 nmole/min/nmol of flavin
